Source: patent publication US20050288351A1, “Azaspiro compounds for the treatment of pain” (Schwarz Pharma AG, priority 2002, published 2005)

What was measured:
NMRl mice = experiment: formalin test, in-vivo test for determining the analgesic efficacy; set-up: key to Mean deviation of the pain reaction compared to control (%) (n minutes after administration of formalin) 20-25′ / Mean deviation of the pain reaction compared to control (%) (n minutes after administration of formalin) 30-35′: (+): Intensified pain reaction; conditions: for Mean deviation of the pain reaction compared to control (%) (n minutes after administration of formalin) 20-25′: 20-25′ after formalin; for Mean deviation of the pain reaction compared to control (%) (n minutes after administration of formalin) 30-35′: 30-35′ after formalin; for Mean deviation of the pain reaction compared to control (%) (n minutes after administration of formalin) 40-45′: 40-45′ after formalin; for average reduction of the pain reaction: after 30-45 minutes in the formalin test
Procedure: (§1) In each case, the maximum dosage selected for the concentration of azaspiro compounds was held, by a factor of about 2, below the toxic dose previously determined in the IRWIN test (Irwin, Psychopharmacologia 13 (1968) 222).
A reduction in the pain reaction is expressed in negative percentage figures.
The test was conducted as described by Wheeler-Aceto (Psychopharmacology 104, 1991, 35).
NMRl mice having a weight of 20-25 g were kept under controlled conditions (22±2° C., 40-70% relative humidity). 25 μl of a 5% […] solution was injected in the hind leg and the leg-licking frequency was then clocked for 5 minutes each at defined intervals (20, 30, 40 minutes).
(§2) First, the highest possible non-toxic concentration of the respective test substances that could be used was determined by an IRWIN test (Irwin, Psychopharmacologia 13, 1968, 222).
The test substances were dissolved in a physiological salt solution with 0.5% sodium carboxymethyl cellulose and were each measured in 1-3 dosages that had been applied intraperitoneally 10 minutes before administration of formalin. The comparative reference value was provided by a control excipient (10 ml/kg).
The test was performed in blind fashion on 10 mice per test series. The evaluation was based on a comparison of the treated animals with control excipients at three different times. […] Accordingly, an average 50% reduction of the pain reaction for the treated animals is obtained when in a defined period (e.g. 30-35′ after the formalin injection) the leg-licking duration (averaged over the 10 test animals) is reduced by 50% compared to the untreated animals. The statistical significance was determined using the Mann-Whitney U-test.

[1] = side effects above the maximum tolerable dosages (IRWIN test); format: in vivo
Procedure: as §1, with “FIG. 1 and Table 1 show the reaction of test animals (10 mice each) 20-45 minutes after the intraperitoneal administration of selected compounds. In” for “In”
as §2

[2] = 8 mg/kg i.p., Test series 1, n = 10 mice
[3] = 8 mg/kg i.p., Test series 2, n = 10 mice
[4] = 16 mg/kg i.p., Test series 1, n = 10 mice
[5] = 16 mg/kg i.p., Test series 2, n = 10 mice
[6] = 32 mg/kg i.p., Test series 1, n = 10 mice
[7] = 32 mg/kg i.p., Test series 2, n = 10 mice
[8] = 4 mg/kg i.p., Test series 2, n = 10 mice
[9] = 64 mg/kg i.p., Test series 1, n = 10 mice
[10] = 64 mg/kg i.p., Test series 2, n = 10 mice

Structure (SMILES) | Mean deviation of the pain reaction compared to control (%) (n minutes after administration of formalin) 20-25′ (NMRl mice; 32 mg/kg i.p., n = 10 mice) | Mean deviation of the pain reaction compared to control (%) (n minutes after administration of formalin) 30-35′ (NMRl mice; 32 mg/kg i.p., n = 10 mice) | Mean deviation of the pain reaction compared to control (%) (n minutes after administration of formalin) 40-45′ (NMRl mice; 32 mg/kg i.p., n = 10 mice) | Mean deviation of the pain reaction compared to control (%) (n minutes after administration of formalin) 20-25′ (NMRl mice; [4]) | Mean deviation of the pain reaction compared to control (%) (n minutes after administration of formalin) 30-35′ (NMRl mice; [4]) | Mean deviation of the pain reaction compared to control (%) (n minutes after administration of formalin) 40-45′ (NMRl mice; [4]) | Mean deviation of the pain reaction compared to control (%) (n minutes after administration of formalin) 20-25′ (NMRl mice; [5]) | Mean deviation of the pain reaction compared to control (%) (n minutes after administration of formalin) 30-35′ (NMRl mice; [5]) | Mean deviation of the pain reaction compared to control (%) (n minutes after administration of formalin) 20-25′ (NMRl mice; [6]) | Mean deviation of the pain reaction compared to control (%) (n minutes after administration of formalin) 30-35′ (NMRl mice; [6]) | Mean deviation of the pain reaction compared to control (%) (n minutes after administration of formalin) 40-45′ (NMRl mice; [6]) | also measured
ON=C1CC2(CCCCC2)CN1 [SPM 6850, N-(2-azaspiro[4.5]decane-3)-oxim] | (+) | −50% | −38% | – | – | – | – | – | – | – | – | average reduction of the pain reaction (NMRl mice; 32 mg/kg per Table 1): 44%
ON=C1CC2(CCCCCC2)CN1 [SPM 6873, N-(2-azaspiro[4.6]undecane-3)-oxim] | – | – | – | – | – | – | – | – | – | – | – | Mean deviation of the pain reaction compared to control (%) (n minutes after administration of formalin) 20-25′ (NMRl mice; 16 mg/kg i.p., n = 10 mice): (+); Mean deviation of the pain reaction compared to control (%) (n minutes after administration of formalin) 30-35′ (NMRl mice; 16 mg/kg i.p., n = 10 mice): −35%; Mean deviation of the pain reaction compared to control (%) (n minutes after administration of formalin) 40-45′ (NMRl mice; 16 mg/kg i.p., n = 10 mice): −38%; average reduction of the pain reaction (NMRl mice; 16 mg/kg per Table 1): 36.5%
S=C1CC2(CCCCC2)CN1 [SPM 0013, 2-azaspiro[4.5]decane-3-thion] | −99% | −32% | −4% | – | – | – | – | – | – | – | – | –
O=C1CC2(CCCCC2)CN1 [GBP-L, 2-azaspiro[4.5]decan-3-on, reference compound] | – | – | – | −74% | −40% | −41% | (+) | (+) | −64% | −15% | −46% | Mean deviation of the pain reaction compared to control (%) (n minutes after administration of formalin) 20-25′ (NMRl mice; [2]): −58%; Mean deviation of the pain reaction compared to control (%) (n minutes after administration of formalin) 30-35′ (NMRl mice; [2]): −18%; Mean deviation of the pain reaction compared to control (%) (n minutes after administration of formalin) 40-45′ (NMRl mice; [2]): −15%; Mean deviation of the pain reaction compared to control (%) (n minutes after administration of formalin) 20-25′ (NMRl mice; [3]): (+); Mean deviation of the pain reaction compared to control (%) (n minutes after administration of formalin) 30-35′ (NMRl mice; [3]): (+); Mean deviation of the pain reaction compared to control (%) (n minutes after administration of formalin) 20-25′ (NMRl mice; [7]): (+); Mean deviation of the pain reaction compared to control (%) (n minutes after administration of formalin) 30-35′ (NMRl mice; [7]): −10%; lethality [1]: significant lethality rate
S=C1CC2(CCCCCC2)CN1 [SPM 6868, 2-azaspiro[4.6]undecane-3-thion] | – | – | – | −62% | −29% | −49% | −42% | −30% | −83% | −0% | −24% | Mean deviation of the pain reaction compared to control (%) (n minutes after administration of formalin) 20-25′ (NMRl mice; [8]): −53%; Mean deviation of the pain reaction compared to control (%) (n minutes after administration of formalin) 30-35′ (NMRl mice; [8]): −7%; Mean deviation of the pain reaction compared to control (%) (n minutes after administration of formalin) 40-45′ (NMRl mice; [8]): −16%; Mean deviation of the pain reaction compared to control (%) (n minutes after administration of formalin) 40-45′ (NMRl mice; [5]): −31%; Mean deviation of the pain reaction compared to control (%) (n minutes after administration of formalin) 20-25′ (NMRl mice; [9]): −89%; Mean deviation of the pain reaction compared to control (%) (n minutes after administration of formalin) 30-35′ (NMRl mice; [9]): −67%; Mean deviation of the pain reaction compared to control (%) (n minutes after administration of formalin) 40-45′ (NMRl mice; [9]): −83%; Mean deviation of the pain reaction compared to control (%) (n minutes after administration of formalin) 20-25′ (NMRl mice; [10]): −100%; Mean deviation of the pain reaction compared to control (%) (n minutes after administration of formalin) 30-35′ (NMRl mice; [10]): −98%; Mean deviation of the pain reaction compared to control (%) (n minutes after administration of formalin) 40-45′ (NMRl mice; [10]): −93%; melting point: 132.3 °C
C1CCC2(CC1)CCNC2 [SPM 0019, 2-azaspiro[4.5]decane] | −67% | −21% | −26% | – | – | – | – | – | – | – | – | –
